# Measurements as given in patent US20240228488A1 (TAKEDA PHARMACEUTICAL COMPANY LIMITED, priority 2021, published 2024).
# Experiments:
# [1] = target: human activated kallikrein enzyme (Homo sapiens, UniProt P03952); assay: Plasma kallikrein inhibition, fluorogenic PFR-AMC substrate, 500 pM activated kallikrein format; type: biochemical; details: 500 pM activated kallikrein, 300 uM PFR-AMC, 30 min preincubation, 10 min reaction; read-out: Primary Dose Response Assay: Average EC50
# Procedure, shortened: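 Fluorescence (ex 380/em 460 nm) is read after 10 min of 300 uM PFR-AMC turnover by 500 pM enzyme at RT. Compounds sit with enzyme for 30 min beforehand. Buffer is Tris (pH 7.5) with EDTA, NaCl, PEG-400 and Triton X-100; EC50 values are banded.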
# plasma kallikrein = target: T1, plasma kallikrein (Homo sapiens, UniProt P03952); assay: Neat human plasma assay, FXIIa contact pathway-activated, PFR-AMC substrate; type: biochemical; details: citrated human plasma 78% final, 10 nM human FXIIa, 100 μM PFR-AMC; read-out: Human Plasma Assay: IC90
# T1 construct: from tissue
# Procedure, shortened: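 Compound inhibition of plasma kallikrein measured as PFR-AMC (100 μM) cleavage rate over 5 min at room temperature in 78% citrated human plasma activated with 10 nM FXIIa (Tris pH 7.5 buffer). IC50/IC90 from 4-parameter fit of rate versus inhibitor concentration.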
# human activated kallikrein enzyme, sequence (P03952 391-638 limits assumed): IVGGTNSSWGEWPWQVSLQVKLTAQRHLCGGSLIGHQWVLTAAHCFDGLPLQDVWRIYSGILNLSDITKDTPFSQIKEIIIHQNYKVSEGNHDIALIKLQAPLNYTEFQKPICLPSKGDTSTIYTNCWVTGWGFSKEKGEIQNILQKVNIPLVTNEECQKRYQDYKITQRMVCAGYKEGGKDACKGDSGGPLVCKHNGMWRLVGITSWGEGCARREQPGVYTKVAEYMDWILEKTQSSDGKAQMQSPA
# human activated kallikrein enzyme, sequence (P03952 20-390 partner limits assumed): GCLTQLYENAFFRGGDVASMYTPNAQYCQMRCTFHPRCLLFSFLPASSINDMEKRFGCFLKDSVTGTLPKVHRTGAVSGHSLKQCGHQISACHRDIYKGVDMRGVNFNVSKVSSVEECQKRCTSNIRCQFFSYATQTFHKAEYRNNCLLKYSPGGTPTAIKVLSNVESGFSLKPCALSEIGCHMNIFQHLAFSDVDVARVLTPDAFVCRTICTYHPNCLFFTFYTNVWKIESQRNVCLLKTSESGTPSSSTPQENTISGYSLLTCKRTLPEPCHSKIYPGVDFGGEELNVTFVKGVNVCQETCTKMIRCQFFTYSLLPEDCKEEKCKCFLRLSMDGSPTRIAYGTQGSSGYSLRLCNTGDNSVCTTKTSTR
# T1 sequence (P03952 391-638 limits assumed): as the sequence (P03952 391-638 limits assumed) above
# T1 sequence (P03952 20-390 partner limits assumed): as the sequence (P03952 20-390 partner limits assumed) above
Compound,EC50 [1] [µM],IC90 (plasma kallikrein) [µM]
"O=C(Nc1cc(NCc2cn3cc(C4CC4)cc(CO)c3n2)ncn1)[C@H]1C[C@@H]1c1cccc(Cl)c1 (racemic) [Example 70, rac-(1S*,2S*)-2-(3-chlorophenyl)-N-(6-(((6-cyclopropyl-8-(hydroxymethyl)imidazo[1,2-α]pyridin-2-yl)methyl)amino)pyrimidin-4-yl)cyclopropane-1-carboxamide]",0.001 to 0.01,> 48
"O=C(O)CCc1cc(C2CC2)cn2cc(CNc3ccnc(NC(=O)[C@H]4C[C@@H]4c4cccc(Cl)c4)c3)nc12 [Example 290, 3-(2-(((2-((1S,2S)-2-(3-chlorophenyl)cyclopropane-1-carboxamido)pyridin-4-yl)amino)methyl)-6-cyclopropylimidazo[1,2-a]pyridin-8-yl)propanoic acid]",< 0.001,1.5 to 10
"Cc1ccnc([C@H]2C[C@@H]2C(=O)Nc2cc(N[C@H](C)c3cn4cc(C5CC5)cc(N5CCOC5=O)c4n3)ncn2)n1 [Example 534, (1S,2S)-N-(6-(((R)-1-(6-cyclopropyl-8-(2-oxooxazolidin-3-yl)imidazo[1,2-a]pyridin-2-yl)ethyl)amino)pyrimidin-4-yl)-2-(4-methylpyrimidin-2-yl)cyclopropane-1-carboxamide]",< 0.001,< 0.4
"Cc1ccnc([C@H]2C[C@@H]2C(=O)Nc2cc(OCc3cn4cc(C5CC5)cc(N5CC(=O)N(C)C5=O)c4n3)c(C)nn2)n1 [Example 560, (1S,2S)-N-(5-((6-cyclopropyl-8-(3-methyl-2,4-dioxoimidazolidin-1-yl)imidazo[1,2-a]pyridin-2-yl)methoxy)-6-methylpyridazin-3-yl)-2-(4-methylpyrimidin-2-yl)cyclopropane-1-carboxamide]",< 0.001,< 0.4
"Cc1ccnc([C@H]2C[C@@H]2C(=O)Nc2cc(NCc3cn4cc(C5CC5)cc(N5CC(=O)N(C)C5=O)c4n3)nc(C)n2)n1 [Example 365, (1S,2S)-N-(6-(((6-cyclopropyl-8-(3-methyl-2,4-dioxoimidazolidin-1-yl)imidazo[1,2-a]pyridin-2-yl)methyl)amino)-2-methylpyrimidin-4-yl)-2-(4-methylpyrimidin-2-yl)cyclopropane-1-carboxamide]",< 0.001,< 0.4
"Cc1ccnc([C@H]2C[C@@H]2C(=O)Nc2cc(N3C[C@@H](O)C[C@@H]3c3cn4cc([C@H]5C[C@@H]5C)ccc4n3)ncn2)n1 (relative stereo) [Example 470, (1S,2S)-N-(6-((2R,4S)-4-hydroxy-2-(6-((1S*,2S*)-2-methylcyclopropyl)imidazo[1,2-a]pyridin-2-yl)pyrrolidin-1-yl)pyrimidin-4-yl)-2-(4-methylpyrimidin-2-yl)cyclopropane-1-carboxamide]",0.001 to 0.01,1.5 to 10
"N#CCCc1cc(C2CC2)cn2cc(CNc3ccnc(NC(=O)[C@H]4C[C@@H]4c4cccc(Cl)c4)c3)nc12 (racemic) [Example 87, rac-(1S*,2S*)-2-(3-chlorophenyl)-N-(4-(((8-(2-cyanoethyl)-6-cyclopropylimidazo[1,2-a]pyridin-2-yl)methyl)amino)pyridin-2-yl)cyclopropane-1-carboxamide]",0.001 to 0.01,10 to 48
"Cc1nc([C@H]2C[C@@H]2C(=O)Nc2cc(NCc3cn4cc(C5CC5)cc(N5CC(=O)N(C)C5=O)c4n3)ncn2)cs1 (racemic) [Example 493, rac-(1S*,2S*)-N-(6-(((6-cyclopropyl-8-(3-methyl-2,4-dioxoimidazolidin-1-yl)imidazo[1,2-a]pyridin-2-yl)methyl)amino)pyrimidin-4-yl)-2-(2-methylthiazol-4-yl)cyclopropane-1-carboxamide]",0.001 to 0.01,0.4 to 1.5
"CN1CCN(c2cc(C3CC3)cn3cc(CNc4cc(NC(=O)[C@H]5C[C@@H]5c5cccc(Cl)c5)nc(O)n4)nc23)CC1 [Example 285, (1S,2S)-2-(3-chlorophenyl)-N-(6-(((6-cyclopropyl-8-(4-methylpiperazin-1-yl)imidazo[1,2-a]pyridin-2-yl)methyl)amino)-2-hydroxypyrimidin-4-yl)cyclopropane-1-carboxamide]",< 0.001,< 0.4
"CN1CCN(c2cc(C3CC3)cn3cc(CNc4cnnc(NC(=O)[C@H]5C[C@@H]5c5cccc(Cl)c5)c4)nc23)CC1 [Example 612, (1S,2S)-2-(3-chlorophenyl)-N-(5-(((6-cyclopropyl-8-(4-methylpiperazin-1-yl)imidazo[1,2-a]pyridin-2-yl)methyl)amino)pyridazin-3-yl)cyclopropane-1-carboxamide]",< 0.001,1.5 to 10
"Cc1ccnc([C@H]2C[C@@H]2C(=O)Nc2cc(N[C@H](C)c3cn4cc(C5CC5)cc(N5CC(=O)N(C)C5=O)c4n3)nc(OCCN(C)C)n2)n1 [Example 276, (1S,2S)—N-(6-(((R)-1-(6-cyclopropyl-8-(3-methyl-2,4-dioxoimidazolidin-1-yl)imidazo[1,2-a]pyridin-2-yl)ethyl)amino)-2-(2-(dimethylamino)ethoxy)pyrimidin-4-yl)-2-(4-methylpyrimidin-2-yl)cyclopropane-1-carboxamide]",< 0.001,< 0.4
"Cc1ccnc([C@H]2C[C@@H]2C(=O)Nc2cc(NCc3cn4cc(C5CC5)ccc4n3)ncn2)n1 [Example 381, (1S,2S)-N-(6-(((6-cyclopropylimidazo[1,2-a]pyridin-2-yl)methyl)amino)pyrimidin-4-yl)-2-(4-methylpyrimidin-2-yl)cyclopropane-1-carboxamide]",< 0.001,10 to 48
"O=C(Nc1cc(NCc2cn3cc(C4CC4)cc(C4(F)CNC4)c3n2)ccn1)[C@H]1C[C@@H]1c1cccc(Cl)c1 [Example 133, (1S,2S)-2-(3-chlorophenyl)-N-(4-(((6-cyclopropyl-8-(3-fluoroazetidin-3-yl)imidazo[1,2-a]pyridin-2-yl)methyl)amino)pyridin-2-yl)cyclopropane-1-carboxamide]",< 0.001,0.4 to 1.5
"Cc1ccnc([C@H]2C[C@@H]2C(=O)Nc2cc(NCc3cn4cc(C5CC5)cc(N5CC(=O)N(C)C5=O)c4n3)nc(C3(O)COC3)n2)n1 (racemic) [Example 113, rac-(1S*,2S*)—N-(6-(((6-cyclopropyl-8-(3-methyl-2,4-dioxoimidazolidin-1-yl)imidazo[1,2-a]pyridin-2-yl)methyl)amino)-2-(3-hydroxyoxetan-3-yl)pyrimidin-4-yl)-2-(4-methylpyrimidin-2-yl)cyclopropane-1-carboxamide]",< 0.001,0.4 to 1.5
"Cc1ccnc([C@H]2C[C@@H]2C(=O)Nc2cc(N(C)Cc3cn4cc(C5CC5)cc(N5CC(=O)N(CC(C)(C)O)C5=O)c4n3)nc(C)n2)n1 [Example 359, (1S,2S)-N-(6-(((6-cyclopropyl-8-(3-(2-hydroxy-2-methylpropyl)-2,4-dioxoimidazolidin-1-yl)imidazo[1,2-a]pyridin-2-yl)methyl)(methyl)amino)-2-methylpyrimidin-4-yl)-2-(4-methylpyrimidin-2-yl)cyclopropane-1-carboxamide]",< 0.001,0.4 to 1.5

# Other lines, results leading:
EC50 [1] [µM],IC90 (plasma kallikrein) [µM],Compound
0.001 to 0.01,1.5 to 10,"CN(C)S(=O)(=O)c1cc(C2CC2)cn2cc(CNc3cc(NC(=O)[C@H]4C[C@@H]4c4cccc(Cl)c4)ncn3)nc12 [Example I-151, (1S,2S)-2-(3-chlorophenyl)-N-(6-(((6-cyclopropyl-8-(N,N-dimethylsulfamoyl)imidazo[1,2-a]pyridin-2-yl)methyl)amino)pyrimidin-4-yl)cyclopropane-1-carboxamide]"
< 0.001,0.4 to 1.5,"O=C(Nc1cc(NCc2cn3cc(C4CC4)cc(N4CCOC4=O)c3n2)ncn1)[C@H]1C[C@@H]1c1cc(Cl)ccn1 (racemic) [Example I-173, rac-(1S*,2S*)-2-(4-chloropyridin-2-yl)-N-(6-(((6-cyclopropyl-8-(2-oxooxazolidin-3-yl)imidazo[1,2-a]pyridin-2-yl)methyl)amino)pyrimidin-4-yl)cyclopropane-1-carboxamide]"
< 0.001,1.5 to 10,"CN1CCN(c2cc(C3CC3)cn3cc(CNc4cc(NC(=O)[C@H]5C[C@@H]5c5cccc(Cl)c5)ncn4)nc23)C1=O [Example I-157, (1S,2S)-2-(3-chlorophenyl)-N-(6-(((6-cyclopropyl-8-(3-methyl-2-oxoimidazolidin-1-yl)imidazo[1,2-a]pyridin-2-yl)methyl)amino)pyrimidin-4-yl)cyclopropane-1-carboxamide]"
0.001 to 0.01,1.5 to 10,"CC1(C)CN(c2cc(C3CC3)cn3cc(CNc4cc(NC(=O)[C@H]5C[C@@H]5c5cccc(Cl)c5)ncn4)nc23)C(=O)O1 [Example I-199, (1S,2S)-2-(3-chlorophenyl)-N-(6-(((6-cyclopropyl-8-(5,5-dimethyl-2-oxooxazolidin-3-yl)imidazo[1,2-a]pyridin-2-yl)methyl)amino)pyrimidin-4-yl)cyclopropane-1-carboxamide]"
< 0.001,1.5 to 10,"O=C(Nc1cc(NCc2cn3cc(C4CC4)cc(N4CC5(C4)CN(C4CC4)C5)c3n2)ccn1)[C@H]1C[C@@H]1c1cccc(Cl)c1 [Example I-24, (1S,2S)-2-(3-chlorophenyl)-N-(4-(((6-cyclopropyl-8-(6-cyclopropyl-2,6-diazaspiro[3.3]heptan-2-yl)imidazo[1,2-a]pyridin-2-yl)methyl)amino)pyridin-2-yl)cyclopropane-1-carboxamide]"
